Source: US8105636B2, “Compositions and methods for treating inflammation and inflammation-related disorders by Plectranthus amboinicus extracts” (Academia Sinica, priority 2007, dated 2012)
Read-outs that look alike come from different tables or passages of the source. Values belong to the compound of their own block, whether it stands above or below them.

What was measured:
[1] = target: T1, AP-1 (Homo sapiens, UniProt P01100+P05412); assay: AP-1 inhibition assay (ELISA), AP-1 binding to AP-1 recognition sequence
T1 construct: (Histidine)6; Strep-tag; made in house; host or cells: bacterial cells harboring pFos-Jun
Method: To test the effect of the compounds of the present disclosure on AP-1 binding activity to AP-1 recognition sequence, ELISA experiments were performed.
According to implementations, binding assays were developed to identify inhibitors that block the AP-1 DNA binding activities. Traditional methods call for the preparation of nuclear extracts from TPA-stimulated cells, or require separate purification of Fos and Jun followed with in vitro dimerization to form a functional AP-1 complexes. A bicistronic expression vector that can drive the expression of two genes in one plasmid was thus designed as shown in FIG. 7. In this system, a promoter would directly drive the expression of the first gene, which is connected to the second gene via a ribosome-binding site in order to confer the expression of the second genes. Any pair of genes that form heterodimer in the cells for their physiological functions can be potentially expressed as complexes in the cells using this system.
According to implementations, the expression system of FIG. 7 was used to co-express AP-1 complexes. Accordingly, Fos (as gene 1) was tagged with a (Histidine)6 tag and Jun (as Gene 2) was tagged with Strep-tag as illustrated in FIG. 8A. […] Cross-linking experiments further confirmed the Fos-Jun complexes are dimers (FIG. 8C).
The crude extracts containing or the purified proteins were used for ELISA-based and fluorescence anisotropy-based binding analysis. Labeled oligonucleotides containing one or more copies of AP-1 consensus binding sites were used in the binding assays. Biotin-labeled oligonucleotides were used to coat streptavidin-plates in ELISA-binding assays. Rhodamine or fluorescein or other fluorophores-labeled oligonucleotides were used for fluorescence anisotropy analysis.

[2] = tested on: AP-1 transcription factors; assay: ELISA-based AP-1/DNA binding assay with nuclear extracts from TPA-activated HeLa or K562 cells; conditions: fractions of PA crude extract from preparative C18 HPLC; FIG. 4
Method: According to implementations of experimental data shown in FIG. 5, oligonucleotide containing AP-1 binding sites were incubated nuclear extracts from TPA-stimulated K562 (K562) or HeLa (HeLa) cells. The antibodies to AP-1 complexes were added followed with horseradish peroxidase-labeled secondary antibody for ELISA-based analysis. AP-1 binding activity in the nuclear extract from TPA-stimulated cells was defined as 100% and the AP-1 binding activity of buffer only was defined as 0%.
According to implementations of experimental data shown in FIG. 6, AP-1 complexes can be formed by different proteins such as C-Jun, JunB, JunD, c-Fos, Fos-B, Fra-1 or Fra-2.
Due to the involvement of AP-1 activity in inflammatory signaling, the effects of the PA crude extract on AP-1/DNA binding activity was examined. […] The nuclear extract prepared from TPA-activated HeLa or K562 cells were used as AP-1 protein sources. After incubating with the oligonucleotides containing AP-1 binding sites, the AP-1/DNA complexes were detected with HRP-conjugated anti-c-Fos antibodies.
The PA crude extract was further fractionated with preparative HPLC using C18 column. […] This fraction was further purified by employing another C18 column using the solvent gradient from 2% acetonitrile to 90% acetonitrile containing 0.1% trifluoreoacetic acid. […]

[3] = tested on: Human umbilical vein endothelial (HUVEC) cells; assay: LPS-induced cytokine/chemokine expression in HUVEC cells (Luminex); type: cell-based; design: unit not given here; conditions: HUVEC cells incubated with LPS, PA crude extract 1 mg/ml
Method: Human umbilical vein endothelial (HUVEC) cells were incubated with LPS in the absence or presence of 1 mg/ml crude extract of PA. The cytokine expression profile was determined using Luminex.

[4] = ELISA, AP-1 binding activity to AP-1 recognition sequence, read-out: IC50 (AP-1 inhibition assay)

T1 sequence (P01100 whole entry): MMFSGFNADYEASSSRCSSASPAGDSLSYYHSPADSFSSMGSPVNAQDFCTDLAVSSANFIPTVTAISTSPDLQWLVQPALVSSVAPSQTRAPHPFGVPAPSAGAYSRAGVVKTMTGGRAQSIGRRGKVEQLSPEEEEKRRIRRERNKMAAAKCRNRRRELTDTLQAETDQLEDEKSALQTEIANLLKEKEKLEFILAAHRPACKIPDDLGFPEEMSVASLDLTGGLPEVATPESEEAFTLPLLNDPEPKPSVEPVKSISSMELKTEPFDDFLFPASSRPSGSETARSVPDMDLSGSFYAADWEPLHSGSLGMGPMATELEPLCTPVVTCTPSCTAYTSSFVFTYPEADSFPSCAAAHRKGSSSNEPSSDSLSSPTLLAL
T1 sequence (P05412 whole entry): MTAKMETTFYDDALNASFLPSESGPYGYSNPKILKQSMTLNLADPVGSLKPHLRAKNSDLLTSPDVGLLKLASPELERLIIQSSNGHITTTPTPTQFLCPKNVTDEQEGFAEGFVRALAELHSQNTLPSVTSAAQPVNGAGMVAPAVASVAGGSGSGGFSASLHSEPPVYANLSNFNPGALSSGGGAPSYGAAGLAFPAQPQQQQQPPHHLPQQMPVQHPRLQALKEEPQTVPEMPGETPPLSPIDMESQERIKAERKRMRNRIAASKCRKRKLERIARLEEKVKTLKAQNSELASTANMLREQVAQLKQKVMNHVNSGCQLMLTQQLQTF

IC50 [1, 4]: 8 ± 4.7 µM
Compound: COC(=O)C(Cc1ccc(O)c(O)c1)NC(=O)C(Cc1ccc(O)c(O)c1)NC(=O)C=Cc1ccc(O)c(O)c1 (stereo not drawn) [Compound 19]

IC50 [1, 4]: 12.9 ± 5.9 µM
Compound: O=C(/C=C/c1ccc(O)c(O)c1)NCCc1ccc(O)c(O)c1 [Compound 8]

IC50 [1, 4]: 9.2 ± 3.2 µM
Compound: O=C(/C=C/c1ccc(O)c(O)c1)N[C@@H](Cc1ccc(O)c(O)c1)C(=O)O [Compound 7]

IC50 [1, 4]: 10 ± 4.1 µM
Compound: O=C(/C=C/c1ccc(O)c(O)c1)O[C@H](Cc1ccc(O)c(O)c1)C(=O)O [rosmarinic acid (4), rosmarinic acid]
Inhibitory effects against AP-1 binding of HPLC fractions and isolated components (in words) [2]: inhibitory effects

IC50 [1, 4]: 0.8 ± 0.8 µM
Compound: COC(=O)C(Cc1ccc(O)c(O)c1)NC(=O)[C@H](Cc1ccc(O)c(O)c1)OC(=O)/C=C/c1ccc(O)c(O)c1 (stereo partly drawn) [Compound 13]

IC50 [1, 4]: 3.5 ± 2 µM
Compound: O=C(C=Cc1ccc(O)c(O)c1)NC(Cc1ccc(O)c(O)c1)C(=O)NC(Cc1ccc(O)c(O)c1)C(=O)O (stereo not drawn) [Compound 20]

IC50 [1, 4]: 32.5 ± 24 µM
Compound: CCOC(=O)[C@H](Cc1ccc(O)c(O)c1)NC(=O)/C=C/c1ccc(O)c(O)c1 [Compound 6]

IC50 [1, 4]: 4.3 ± 2.6 µM
Compound: O=C(O)/C(=C\c1ccc(O)c(O)c1)C(c1ccc(O)c(O)c1)C(O)C(=O)O (single isomer, unassigned) [Mena 987 (1)]

IC50 [1, 4]: 5.6 ± 4.2 µM
Compound: CCOC(=O)C(Cc1ccc(O)c(O)c1)OC(=O)/C=C/c1ccc(O)c(O)c1 (stereo not drawn) [Compound 10]

IC50 [1, 4]: 39 ± 31 µM
Compound: COC(=O)C(Cc1ccc(O)c(O)c1)NC(=O)/C=C/c1ccc(O)c(O)c1 (stereo not drawn) [Compound 5]

IC50 [1, 4]: 34.7 ± 21.3 µM
Compound: O=C(O)CC(NC(=O)C(Cc1ccc(O)c(O)c1)OC(=O)C=Cc1ccc(O)c(O)c1)C(=O)O (stereo not drawn) [Compound 15]

Further lines, the compound ahead of its results:

Compound: CCOP(=O)(OCC)C(Cc1ccc(O)c(O)c1)NC(=O)/C=C/c1ccc(O)c(O)c1 (stereo not drawn) [Compound 9]
IC50 [1]: 26.2 ± 18.9 µM

Compound: O=C(/C=C/c1ccc(O)c(O)c1)NC[C@@H](O)C(=O)Oc1cccc(O)c1O [CHM9102]
Inhibitory effects against AP-1 binding of HPLC fractions and isolated components (in words) [2]: inhibitory effects

Compound: COc1ccc2c(c1)c(CC(=O)O)c(C)n2C(=O)c1ccc(Cl)cc1 [Indomethacin]
Eotaxin expression [3]: 29.1 | GM-CSF expression [3]: 220 | IFNg expression [3]: 2.41 | IL-1a expression [3]: 13.8 | IL-1b expression [3]: 11.7 | IL-2 expression [3]: 10.1 | IL-3 expression [3]: 8.82 | IL-4 expression [3]: 11.8 | IL-5 expression [3]: 1.24 | IL-6 expression [3]: 62300 | IL-7 expression [3]: 51.5 | IL-8 expression [3]: 8030 | IL-10 expression [3]: 1.12 | IL-12 (p40) expression [3]: 16.4 | IL-12 (p70) expression [3]: 6.43 | IL-13 expression [3]: 11.1 | IL-15 expression [3]: 13.4 | IP-10 expression [3]: 24.5 | MCP-1 expression [3]: 41800 | MIP-la expression [3]: 7.57 | RANTES expression [3]: 5.48 | TNFa expression [3]: 8.14

Compound: COC(=O)C(Cc1c[nH]c2ccccc12)NC(=O)C(Cc1ccc(O)c(O)c1)OC(=O)C=Cc1ccc(O)c(O)c1 (stereo not drawn) [Compound 17]
IC50 [1, 4]: 43.4 ± 28.2 µM

Compound: O=C(C=Cc1ccc(O)c(O)c1)OC(Cc1ccc(O)c(O)c1)C(=O)NC(Cc1c[nH]c2ccccc12)C(=O)O (stereo not drawn) [Compound 18]
IC50 [1, 4]: 31.9 ± 20 µM

Compound: O=C(/C=C/c1cc(O)c(O)cc1[N+](=O)[O-])OC(Cc1cc(O)c(O)cc1[N+](=O)[O-])C(=O)O (stereo not drawn) [Compound 11]
IC50 [1, 4]: 21.3 ± 24 µM

Compound: COC(=O)C(Cc1ccc(O)c(O)c1)NC(=O)C(Cc1cc(O)c(O)cc1[N+](=O)[O-])OC(=O)C=Cc1ccc(O)c(O)c1 (stereo not drawn) [Compound 16]
IC50 [1, 4]: 21.3 ± 24 µM

Compound: CCOC(=O)C(Cc1ccc(O)c(O)c1)NC(=O)[C@H](Cc1ccc(O)c(O)c1)OC(=O)/C=C/c1ccc(O)c(O)c1 (stereo partly drawn) [Compound 14]
IC50 [1, 4]: 1.2 ± 0.8 µM

Compound: O=C(OC(Cc1ccc(O)c(O)c1)C(=O)O)C1=Cc2ccc(O)c(O)c2C(C(=O)OC(Cc2ccc(O)c(O)c2)C(=O)O)C1c1ccc(O)c(O)c1 (stereo not drawn) [Mena 9102 (3)]
IC50 [1, 4]: 1.4 ± 0.9 µM
